Test results from patent US5593994A, “Prostaglandin synthase inhibitors” (The DuPont Merck Pharmaceutical Company, priority 1994, dated 1997).
pIC50: −log10 of the molar value.

Legend:
PGHS 2 = target: T1, PGHS 2 (Homo sapiens, UniProt P35354); assay: Prostaglandin G/H Synthase Inhibition Assay (PGHS 2); type: biochemical; details: Table A; 100 μM arachidonate; 2 min preincubation; read-out: IC50 (PGHS2)
T1 sequence (P35354 18-604): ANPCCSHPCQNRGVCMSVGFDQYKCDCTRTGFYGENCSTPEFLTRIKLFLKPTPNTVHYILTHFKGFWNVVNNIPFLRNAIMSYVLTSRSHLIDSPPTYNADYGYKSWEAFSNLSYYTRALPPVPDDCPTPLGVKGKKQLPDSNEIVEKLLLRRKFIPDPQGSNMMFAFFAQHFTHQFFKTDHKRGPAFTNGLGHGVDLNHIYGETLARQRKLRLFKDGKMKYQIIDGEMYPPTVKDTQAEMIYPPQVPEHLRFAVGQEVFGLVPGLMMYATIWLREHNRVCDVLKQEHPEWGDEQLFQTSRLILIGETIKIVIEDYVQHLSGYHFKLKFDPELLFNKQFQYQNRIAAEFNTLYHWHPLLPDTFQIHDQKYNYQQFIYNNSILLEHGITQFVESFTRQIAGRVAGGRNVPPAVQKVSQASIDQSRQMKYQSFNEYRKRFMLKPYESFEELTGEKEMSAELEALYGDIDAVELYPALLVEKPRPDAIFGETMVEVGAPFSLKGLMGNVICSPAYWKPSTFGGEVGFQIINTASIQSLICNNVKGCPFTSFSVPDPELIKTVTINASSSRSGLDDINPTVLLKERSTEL
Method: Prostaglandin G/H synthase (cyclooxygenase, PGHS, Cox) activity was determined spectrophotometrically essentially as described by Kulmacz et al (reference). […] The assay was adapted to a 96 well microtiter dish format as described below. […] The reaction plate was immediately placed in a microtiter reader and readings made at 610 nm for 1.5 min at 3 sec intervals. Reaction rates were calculated from the slope of the linear portion of the absorbance versus time curve. Rates for control samples lacking added inhibitors were used to calculate the percent inhibition of each test compound.
The ratio PGHS 1 IC50 /PGHS 2 IC50 is referred to as the selectivity ratio.

[1] = tested on: PGE2 production in human monocytes; assay: Cellular Assay: inhibition of PGE2 production in LPS-stimulated human peripheral blood monocytes; type: cell-based; details: Monocyte, Table B, LPS 1 μg/ml, 17.5 hours
Method: Human peripheral blood monocytes were obtained from normal donor blood by leukophoresis and isolated by elutriation. Monocytes were suspending in RPMI medium at 2×10^6 cells/ml, and plated at 200 μL/well in 96 well microtiter plates. Test compounds were added to the cells at appropriate concentration in DMSO such that the final DMSO concentration was 0.5% in the medium. Cells and compound or DMSO alone were incubated for 1 hour at 37° C. at which time cells were stimulated with 1 μg/ml LPS (Lipopolysaccharide, Salmonella typehrium, 5 mg/ml in 0.1% aqueous TEA) to induce PGHS 2 enzyme activity and prostaglandin production.

Cox-2 = details: cited from earlier work
prostaglandin synthesis = details: in vivo; cited from earlier work
[2] = tested on: both isoenzymes (prostaglandin G/H synthase, Cox 1 and Cox 2); details: cited from earlier work

Structure (SMILES) | pIC50 (PGHS 2) | further results
CS(=O)(=O)c1ccc(-c2ccccc2-c2ccc(F)cc2)cc1 [Example 2] |  | pIC50 [1]: 7.30 to 8.00
COc1ccc(-c2ccccc2-c2ccc(S(C)(=O)=O)cc2)cc1OC [Example 6] | 3.52 to 4.30 | 
CS(=O)(=O)c1ccc(-c2ccccc2-c2ccc(N)cc2)cc1 [Example 16] | 3.52 to 4.30 | 
CS(=O)(=O)c1ccc(-c2ccccc2-c2ccc(CO)cc2)cc1 [Example 43] | 3.52 to 4.30 | 
CS(=O)(=O)c1ccc(-c2ccccc2-c2cccnc2)cc1 [Example 51] | 3.52 to 4.30 | 
CS(=O)(=O)c1ccc(-c2ccccc2-c2ccc3ccccc3n2)cc1 [Example 52] | 3.52 to 4.30 | 
CS(=O)(=O)c1ccc(-c2ccccc2-c2cnc3ccccc3c2)cc1 [Example 53] | 3.52 to 4.30 | 
CS(=O)(=O)c1ccc(-c2cc(N)ccc2-c2ccc(F)cc2)cc1 [Example 78] | 3.52 to 4.30 | 
CS(=O)(=O)c1ccc(-c2ccc(N)cc2-c2ccc(F)cc2)cc1 [Example 79] | 3.52 to 4.30 | 
CS(=O)(=O)c1ccc(-c2cc(O)ccc2-c2ccccc2)cc1 [Example 87, 3-(4'-methylsulfonylphenyl)-4-phenylphenol] | 3.52 to 4.30 | 
CC(=O)c1ccc(-c2ccc(F)cc2)c(-c2ccc(S(C)(=O)=O)cc2)c1 [Example 93] | 4.30 to 5.00 | 
CS(=O)(=O)c1ccc(-c2ccccc2OCc2ccccc2)cc1 [Example 145] | 3.52 to 4.30 | 
CS(=O)(=O)c1ccc(-c2ccccc2N2CCCCC2)cc1 [Example 151, 1-[2-(4-methylsulfonylphenyl)phenyl]piperidine] | 4.30 to 5.00 | 
CS(=O)(=O)c1ccc(-c2ccccc2-n2cccc2)cc1 [Example 153, 1-[2-(4'-methylsulfonylphenyl)phenyl]pyrrole] | 3.52 to 4.30 | 
CS(=O)(=O)c1ccc(-c2ccccc2-c2ccccc2)c(Cl)c1 [Example 305] | 3.52 to 4.30 | 
CS(=O)(=O)c1ccc(-c2cc3ccccc3cc2-c2ccccc2)cc1 [Example 401, 2-(4-methylsulfonylphenyl)-3-phenylnaphthalene] | 4.30 to 5.00 | 
CS(=O)(=O)c1ccc(-c2cccnc2-c2ccc(F)cc2)cc1 [Example 411] | 4.30 to 5.00 | 
COc1ccc(-c2ncccc2-c2ccc(S(C)(=O)=O)cc2)cc1 [Example 412] | 4.30 to 5.00 | 
CS(=O)(=O)Nc1ccc([N+](=O)[O-])cc1OC1CCCCC1 [NS-398] |  | time-dependence of inhibition (Cox-2; Cox-2, longer exposure): selective time-dependence against Cox-2; tightness / reversibility of binding inhibition (Cox-2; reversed only following enzyme denaturation and organic extraction): extremely tight binding inhibition; gastric lesions (prostaglandin synthesis): nor produce gastic lesions; gastric prostaglandin synthesis (prostaglandin synthesis): did not block gastric prostaglandin synthesis; mode of inhibition [2]: competitive toward both isoenzymes

Further lines, with some results ahead:

pIC50 (PGHS 2) | Structure (SMILES) | further results
4.30 to 5.00 | CS(=O)(=O)c1ccc(-c2ccccc2-c2ccccc2)cc1 [Example 1] | 
4.30 to 5.00 | Cc1ccc(-c2ccccc2-c2ccc(S(C)(=O)=O)cc2)cc1 [Example 3] | 
4.30 to 5.00 | COc1cccc(-c2ccccc2-c2ccc(S(C)(=O)=O)cc2)c1 [Example 4] | pIC50 [1]: 7.00 to 7.29
> 5.00 | COc1ccc(-c2ccccc2-c2ccc(S(C)(=O)=O)cc2)cc1 [Example 5] | pIC50 [1]: 7.30 to 8.00
4.30 to 5.00 | CN(C)c1ccc(-c2ccccc2-c2ccc(S(C)(=O)=O)cc2)cc1 [Example 20] | pIC50 [1]: 7.30 to 8.00
4.30 to 5.00 | CS(=O)(=O)c1ccc(-c2ccccc2-c2ccc(C=O)cc2)cc1 [Example 41] | pIC50 [1]: 7.00 to 7.29
> 5.00 | COCc1ccc(-c2ccccc2-c2ccc(S(C)(=O)=O)cc2)cc1 [Example 42] | 
4.30 to 5.00 | CS(=O)(=O)c1ccc(-c2ccccc2-c2ccc3sccc3c2)cc1 [Example 47] | 
> 5.00 | CS(=O)(=O)c1ccc(-c2ccccc2-c2cc3ccccc3s2)cc1 [Example 48] | pIC50 [1]: 7.30 to 8.00
4.30 to 5.00 | CS(=O)(=O)c1ccc(-c2ccccc2-c2ccc3ccccc3c2)cc1 [Example 49] | pIC50 [1]: 7.00 to 7.29
4.30 to 5.00 | COc1cccc2cc(-c3ccccc3-c3ccc(S(C)(=O)=O)cc3)ccc12 [Example 50] | 
4.30 to 5.00 | CS(=O)(=O)c1ccc(-c2ccccc2C2=CCCCC2)cc1 [Example 70, 1-Cyclohexene-2-(4'-methylsulfonylphenyl)benzene] | 
4.30 to 5.00 | CS(=O)(=O)c1ccc(-c2ccccc2C2CCCCC2)cc1 [Example 71] | 
4.30 to 5.00 | CS(=O)(=O)c1ccc(-c2cc([N+](=O)[O-])ccc2-c2ccc(F)cc2)cc1 [Example 80] | 
4.30 to 5.00 | CS(=O)(=O)c1ccc(-c2ccc([N+](=O)[O-])cc2-c2ccc(F)cc2)cc1 [Example 81] | pIC50 [1]: 7.00 to 7.29
> 5.00 | CS(=O)(=O)c1ccc(-c2ccccc2Oc2ccc(F)cc2)cc1 [Example 141] | 
> 5.00 | CS(=O)(=O)c1ccc(-c2ccccc2OC2CCCCC2)cc1 [Example 143] | 
> 5.00 | CS(=O)(=O)c1ccc(-c2ccccc2Oc2ccccc2)cc1 [Example 144, 1-Phenoxy-2-(4'-methylsulfonylphenyl)benzene] | pIC50 [1]: 7.00 to 7.29
> 5.00 | CS(=O)(=O)c1ccc(-c2ccccc2C#Cc2ccccc2)cc1 [Example 152] | 
> 5.00 | NS(=O)(=O)c1ccc(-c2ccccc2-c2ccccc2)cc1 [Example 312, 2-(4-aminosulfonylphenyl)-1-biphenyl] | 
